How the values were obtained:
[1] = system: primary human gastric cancer xenograft; test: Tumor growth in primary human gastric cancer xenograft model; format: in vivo, BALB/c nude mice; conditions: paclitaxel 15 mg/kg Q4D×3 i.p.; Compound A 12 mg/kg BID p.o.; not statistically different from vehicle
Procedure: (§1) Tumor tissues surgically removed from a patient with gastric cancer. Within 2 to 4 hours following patient surgery, small fragments of tumor (3×3×3 mm^3) were subcutaneously engrafted into the scapular area of anesthetized NOD/SCID mice. After tumors grew to around 300-1000 mm^3, tumors were surgically removed and fragments were passaged in NOD/SCID mice by subsequent engraftments. Engraftment in BALB/c nude mice was conducted after 3 successfully passages in NOD/SCID mice. The right axilla region of each BALB/C nude mouse was cleaned with 70% ethanol prior to tumor fragments inoculation. Each animal was implanted subcutaneously with a fragment (around 3×3×3 mm^3) of the gastric cancer in the right flank via 20-gauge trocar needle.
All doses were based on free-base weight.
After implantation, primary tumor volume was measured in two dimensions using a calliper. Tumor volume was calculated using the formula: V=0.5×(a×b^2) where a and b are the long and short diameters of the tumor, respectively. Tumor growth inhibition (TGI) was calculated using the following formula:
[formula] Statistical analysis was conducted using the student T-test. P<0.05 was considered statistically significant.

[2] = system: PARP1/2; conditions: disclosed in WO2013/097225A1; cited from earlier work
[3] = system: Primary tumor cells from a patient with colorectal cancer cultured in Matrigel co-cultured with allogeneic human PBMCs; test: IFN-γ release in primary human tumor cells (Matrigel)/PBMC co-culture with EpCAM×CD3 bispecific T cell engager; format: cell-based; conditions: 50 ng/mL EpCAM×CD3 bispecific T cell engager, 72 hours; Compound B 30 nM, Mab-1 1 μg/mL; treatment group divided by control group
Procedure: After signed the informed consent, healthy human donor's blood was collected and PBMCs were isolated with Ficoll (GE Healthcare, 17-1440-02) according to the manufacturer's protocol with small modification. Briefly, fresh blood was diluted with equivalent volume of 1×DPBS (Gibco®, 14190-144), added equivalent volume of Ficoll into a 50 mL sterile tube, and added diluted blood very carefully onto the surface of the Ficoll. Then centrifuged at 400 g for 40 minutes at room temperature. Carefully removed the upper layer and pipetted the lymphocyte layer to a clean sterile tube, added 3 volumes of 1×DPBS and centrifuge at 200 g for 10 minutes at room temperature. After discarded the supernatant, suspended cells with 10 mL 1×DPBS and washed 2 times more. Suspended cells with 5 mL RPMI-1640 (Gibco®, 22400-089) complete medium (added with 10% fetal bovine serum (Gibco®, 10099-141). […]
Primary tumor cells from a patient with colorectal cancer cultured in Matrigel® were co-cultured with non pre-activated allogeneic human PBMCs, with 50 ng/ml EpCAM×CD3 bispecific T cell engager and with or without an PARP inhibitor named Compound B (30 nM) or an anti-PD-1 antibody named Mab-1 (1 μg/mL), or their combination (named as Mab-1+ Compound B, for short), and cultured for 72 hours. Human IFN-γ in the supernatant of the co-culture system was measured and as the readout (See FIG. 4). […]

[4] = system: primary human SCLC (extensive-stage) xenograft; test: Tumor growth in primary human SCLC (extensive-stage) xenograft model; format: in vivo, BALB/c nude mice; conditions: cohort2, E/C 3 cycles then Compound B 5.45 mg/kg BID for 21 days
Procedure: as §1, with “extensive-stage SCLC.” for “gastric cancer.”, “biopsy, the” for “surgery, small fragments of”, “samples” for “(3×3×3 mm^3)”, “lung” for “gastric”
47 days after implantation, animals bearing tumor were divided to two cohorts, cohort lused smaller tumors for combination setting and cohort 2 used bigger tumors for maintenance setting. In cohort1, animals with mean tumor size of ˜150 mm^3 were assigned into 6 groups with 9 mice per group using a stratified randomization procedure. […]
After implantation, primary tumor volume was measured in two dimensions using a caliper. Tumor volume was calculated using the formula: V=0.5×(a×b^2) where a and b are the long and short diameters of the tumor, respectively. […]
Tumor growth inhibition (TGI) was calculated using the following formula: […]

[5] = Body weight and toxicity in primary human SCLC (extensive-stage) xenograft model; format: in vivo, BALB/c nude mice; conditions: cohort2, Compound B 5.45 mg/kg BID maintenance
Procedure: 47 days after implantation, animals bearing tumor were divided to two cohorts, cohort lused smaller tumors for combination setting and cohort 2 used bigger tumors for maintenance setting. In cohort1, animals with mean tumor size of ˜150 mm^3 were assigned into 6 groups with 9 mice per group using a stratified randomization procedure. Mice were then treated with vehicle (0.5% methylcellulose) twice daily (BID) or Compound B at 5.45 mg/kg BID for 21 days, or E/C [etoposide at 12 mg/kg (Day1-3)+carboplatin at 60 mg/kg (Day1) of a 7 day cycle] for 3 cycles then vehicle BID for 21 days (Day22-42), or the combination of E/C with Compound B at 0.68, 1.36 or 2.73 mg/kg BID (Day1-4 of the 7 day cycle) for 3 cycles then Compound B maintenance therapy at 5.45 mg/kg BID for 21 days (Day22-42). In cohort2, animals with mean tumor size of ˜400 mm^3 were treated with E/C for 3 cycles first. At day22, 20 animals were assigned into 2 groups with 10 mice per group using a stratified randomization procedure, then treated with vehicle (0.5% methylcellulose) twice daily (BID) for 21 days (Day22-42), or Compound B maintenance therapy at 5.45 mg/kg BID for 21 days (Day22-42). All doses were based on free-base weight.

[6] = Particle size distribution of crystalline sesqui-hydrate; format: physicochemical
Procedure: Compound A-Crude 2 (5.3 Kg) was mixed with a solution of isopropanol (41.6 Kg) and water (15.9 Kg). The mixture was degassed and re-protected under nitrogen and then heated to 60° C. and stirred for 2-4 h until the solid was dissolved completely. The temperature was raised to 70-80° C. and water (143 Kg) was added. The resulting mixture was heated to the internal temperature of 70-80° C. and then the heating was stopped but stirred gently for 16 h. The precipitate was filtered, washed with water (19 Kg) and slurred with water (21 kg) for 2 h. The resulting solid was filtered, washed with water (20 Kg). The filtered solid was dried at the temperature below 45° C. for 24-36 h. Compound A sesqui-hydrate (4.22 kg) was obtained with particle sizes of D90=51.51 um, D50=18.62 um, D10=7.63 um. This range of PSD is almost ideal for formulation development.

C[C@]12CCCN1CC1=NNC(=O)c3cc(F)cc4[nH]c2c1c34 [Compound A, (R)-2-fluoro-10a-methyl-7,8,9,10,10a,11-hexahydro-5,6,7a,11-tetraazacyclohepta[def]cyclopenta[a]fluoren-4(5H)-one]
tumor growth inhibition (TGI) on day 21, single agent [1]: 30% | PARP1/2 inhibitory activities [2]: highly selective and potent

C[C@]12CCCN1CC1=NNC(=O)c3cc(F)cc4[nH]c2c1c34 [Compound B, (R)-2-fluoro-10a-methyl-7,8,9,10,10a,11-hexahydro-5,6,7a,11-tetraazacyclohepta[def]cyclopenta[a]fluoren-4(5H)-one sesqui-hydrate]
fold changes of IFN-γ [3]: 1.08 | mean tumor volume after maintenance [4]: 571 mm^3 | body weight change during the maintenance phase compared to the E/C treatment group [5]: no significant body weight change | particle size D10 [6]: 7.63 um | particle size D50 [6]: 18.62 um | particle size D90 [6]: 51.51 um

CC(=O)O[C@H]1C(=O)[C@@]2(C)[C@H]([C@H](OC(=O)c3ccccc3)[C@]3(O)C[C@H](OC(=O)[C@H](O)[C@@H](NC(=O)c4ccccc4)c4ccccc4)C(C)=C1C3(C)C)[C@]1(OC(C)=O)CO[C@@H]1C[C@@H]2O [paclitaxel, reference compound]
tumor growth inhibition (TGI) on day 21, single agent [1]: 31%
